This is an account of results in patent publication US11001563B2, “SSAO inhibitor” (SHANDONG DANHONG PHARMACEUTICAL CO., LTD., priority 2017, dated 2021).

The target in assay [1] is T1, VAP-1/SSAO (Homo sapiens (Human), UniProt Q16853). Briefly: Human VAP-1 enzyme activity assay (Amplex Red Monoamine Oxidase kit). It counts as biochemical. The settings on record: 10 nM VAP-1 enzyme, 30 min preincubation, benzylamine substrate; read-out: Human Recombinant VAP-1/SSAO Enzyme Inhibitory Activity IC50. As for the experimental part:
Human VAP-1 enzyme activity assay:
The inhibition of the sample on VAP-enzyme activity was measured by using an Amplex® Red Monoamine Oxidase kit (Invitrogen #A12214). 100 nL of the gradiently-diluted to-be-tested compound (solvent DMSO) was added to a 384-well plate. 25 μL of 10 nM VAP-1 enzyme solution was added and incubated for 30 minutes at room temperature. A substrate mixture of VAP-1 enzyme (200 μM Amplex Red, 1 U/mL HRP, 1 mM Benzylamine) was added and incubated for 60 minutes at room temperature. After the incubation, the fluorescent signal was read with a microplate reader Envision (excitation light wavelength 530-560 nm, emission light wavelength 590 nm). The fluorescence signal value after the background signal was removed was analyzed by Prism software, and the IC50 of the sample against the VAP-1 enzyme was calculated.

Assay [2] deals with T1, VAP-1/SSAO. Briefly: VAP-1 cell activity assay (HUVEC or CHO cells transfected with VAP-1/pCDNA (3.1) plasmid, Amplex Red). Type of assay: cell-based. Particulars: HUVEC or CHO cells transfected with VAP-1 plasmid; read-out: VAP-1/SSAO Cellular Inhibitory Activity IC50. As for the experimental part: The inhibition of the sample on VAP-1 cell activity was measured by using an Amplex® Red Monoamine Oxidase kit (Invitrogen #A12214).
The cultured HUVEC or CHO cells were plated into a 6-well plate at a density of 0.8 M/well, placed in a 37° C., 5% CO2 incubator for incubation for 24 hours, and then the cells was transferred with a Lipo2000 reagent and a VAP-1/pCDNA (3.1) plasmid, and liquid was changed for the cells after 5 hours (Lipo2000 was toxic to the cells); after 24 hours, the cells were digested and plated into 384-well plates with a density of 25 μl, 10000 cells/well, and liquid was replaced with medium without FBS for the cells after 6-7 hours, and the cell plates were incubated overnight at 37° C. in a 5% CO2 incubator.
1) Dilution of the compound: serial dilution in 4× gradient was carried out with 100% DMSO, 10 points were diluted, the starting concentration of the to-be-tested compound was 0.5 mM (final concentration was 1 μM); 100 nl of compound solution was transferred to a 384-well cell assay plate with ECHO. Negative control wells: 100 nl of DMSO; background control wells: 100 nl DMSO+25 μL medium.
2) The reaction was carried out in the dark at room temperature for 30 min.
3) Preparation of Amplex Red reagent+HRP+benzylamine substrate working solution: Amplex Red reagent+HRP+benzylamine substrate working solution (200 μM Amplex Red reagent+1 U/mL HRP+1 mM benzylamine): 45 μl of 20 mM Amplex Red reagent mother solution, 22.5 μl of 200 U/ml horseradish peroxidase (HRP) mother solution and 45 ul of 100 mM benzylamine were tanken and added to 4.3875 ml of 1× reaction buffer.
4) After 30 min, 25 μl of the substrate working solution was added to a 384-well plate, and a final concentration was 100 μM Amplex Red reagent+0.5 U/mL HRP+0.5 mM benzylamine, respectively.
5) The reaction was carried out in the dark at room temperature for 60 minutes, and the fluorescence value was measured by Envision: the excitation wave was 535 nm, and the emission wave was 590 nm.
6) Inhibition rate calculation formula: % inhibition rate=(1−(test hole minus background−positive control well minus background)/(negative control well minus background-positive control well minus background))*100
7) The data were analyzed with Prism. The IC50 of the sample against VAP-1 cells was calculated.

Each structure is given as a SMILES string.

T1 sequence (Q16853 whole entry): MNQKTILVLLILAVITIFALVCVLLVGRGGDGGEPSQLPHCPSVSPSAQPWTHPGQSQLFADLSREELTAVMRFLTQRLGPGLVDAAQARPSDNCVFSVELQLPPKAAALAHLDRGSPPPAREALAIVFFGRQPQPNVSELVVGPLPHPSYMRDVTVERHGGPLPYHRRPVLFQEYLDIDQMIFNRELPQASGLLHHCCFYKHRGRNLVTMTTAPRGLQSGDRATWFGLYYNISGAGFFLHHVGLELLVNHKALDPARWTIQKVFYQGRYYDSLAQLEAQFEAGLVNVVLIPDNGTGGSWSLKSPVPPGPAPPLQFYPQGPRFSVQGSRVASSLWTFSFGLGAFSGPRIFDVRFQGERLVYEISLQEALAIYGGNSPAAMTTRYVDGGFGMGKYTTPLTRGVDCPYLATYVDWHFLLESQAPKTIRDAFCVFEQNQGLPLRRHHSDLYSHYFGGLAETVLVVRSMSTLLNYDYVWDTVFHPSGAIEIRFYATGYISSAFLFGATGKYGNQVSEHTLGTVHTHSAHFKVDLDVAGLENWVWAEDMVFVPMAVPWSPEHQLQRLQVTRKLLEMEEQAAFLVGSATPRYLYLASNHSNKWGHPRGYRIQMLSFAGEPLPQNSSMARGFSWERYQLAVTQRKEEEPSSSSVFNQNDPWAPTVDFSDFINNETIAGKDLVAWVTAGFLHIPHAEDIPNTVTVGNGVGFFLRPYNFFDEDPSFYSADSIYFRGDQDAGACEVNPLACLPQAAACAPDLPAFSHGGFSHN

As for `Cc1nnc(-c2ccc(OC/C(=C/F)CN)cc2)o1` [WX004], at VAP-1/SSAO [1], the IC50 turned out to be 2.5 nM. Still for that read-out and setting: next, `Cc1n[nH]c(-c2ccc(OC/C(=C/F)CN)cc2)n1` [WX009]: 3.7 nM. `CCn1nnc(-c2ccc(OC/C(=C/F)CN)cc2)n1` [WX014]: the figures for the IC50 at VAP-1/SSAO [1] and at VAP-1/SSAO [2] were 0.8 nM and 0.3 nM, respectively. For `NC/C(=C\F)COc1ccc(-c2nc(C3CC3)no2)cc1` [WX016] the same measures were 1 nM and 0.2 nM.

`NC/C(=C\F)COc1ccc(-c2nc(-c3ccccc3)no2)cc1` [WX017]: on VAP-1/SSAO [1], the IC50 came out at 0.8 nM. For the compound `CC(C)(C)c1noc(-c2ccc(OC/C(=C/F)CN)cc2)n1` [WX019], the IC50 on VAP-1/SSAO [1] worked out at 2 nM. Still for that read-out and setting: next, `NC/C(=C\F)COc1ccc(-c2ncccn2)cc1` [WX021]: 0.3 nM. On to `Cc1csc(-c2ccc(OC/C(=C/F)CN)cc2)n1` [WX022], for which the IC50 on VAP-1/SSAO [1] is 0.3 nM. In the case of `NC/C(=C\F)COc1ccc(-c2nc3ccccc3o2)cc1` [WX023], the IC50 at VAP-1/SSAO [1] came out at 0.4 nM. The same measure, in the same setting: next, `Cc1ncc(-c2ccc(OC/C(=C/F)CN)cc2)s1` [WX024]: 0.3 nM. Still for that read-out and setting: next, `Cn1cnc(-c2ccc(OC/C(=C/F)CN)cc2)n1` [WX025]: 0.9 nM; `Cn1ncc(-c2ccc(OC/C(=C/F)CN)cc2)n1` [WX026]: 0.3 nM; `Cc1nc(-c2ccc(OC/C(=C/F)CN)cc2)no1` [WX028]: 0.7 nM. The same measure, in the same setting: the figure for `NC/C(=C\F)COc1ccc(-c2noc3ccccc23)cc1` [WX033] is 0.3 nM. As for `NC/C(=C\F)COc1ccc(-c2nc(C3CC3)n[nH]2)cc1` [WX034], the IC50 on VAP-1/SSAO [1] was 0.8 nM; on VAP-1/SSAO [2], 0.4 nM. In the case of `CC(C)(C)c1n[nH]c(-c2ccc(OC/C(=C/F)CN)cc2)n1` [WX035], the IC50 on VAP-1/SSAO [1] came to 2.3 nM. In the case of `NC/C(=C\F)COc1ccc(-c2nc(C(F)(F)F)n[nH]2)cc1` [WX036], the IC50 at VAP-1/SSAO [1] turned out to be 4.6 nM. `Cc1coc(-c2ccc(OC/C(=C/F)CN)cc2)n1` [WX039]: the IC50 on VAP-1/SSAO [1] was 0.5 nM. The same measure, in the same setting: the figure for `Cc1cnoc1-c1ccc(OC/C(=C/F)CN)cc1` [WX040] is 0.5 nM; for `Cc1cn[nH]c1-c1ccc(OC/C(=C/F)CN)cc1` [WX041] it is 0.6 nM; for `CC(C)(C)NC(=O)c1noc(-c2ccc(OC/C(=C/F)CN)cc2)n1` [WX042] it is 1.6 nM.

Consider `NC/C(=C\F)COc1ccc(-c2noc(C3CC3)n2)cc1` [WX044], for which, on VAP-1/SSAO [1], the IC50 came to 0.5 nM. The same measure, in the same setting: the figure for `CC(C)(C)c1nc(-c2ccc(OC/C(=C/F)CN)cc2)no1` [WX045] is 1.1 nM; for `CC(C)(C)n1nnc(-c2ccc(OC/C(=C/F)CN)cc2)n1` [WX048] it is 0.6 nM; for `NC/C(=C\F)COc1ccc(-c2nnn(C3CC3)n2)cc1` [WX049] it is 0.3 nM. Same read-out and setting: the figure for `NC/C(=C\F)COc1ccc(N2C(=O)C(=O)c3ccccc32)cc1` [WX052] is 1.3 nM; for `NC/C(=C\F)COc1ccc(-c2nc3ccc(Cl)cc3[nH]2)cc1` [WX054] it is 0.4 nM; for `NC/C(=C\F)COc1ccc(-c2nc(C3CC3)no2)c(Cl)c1` [WX056] it is 1.7 nM.

On to `CS(=O)(=O)n1nc(C2CC2)nc1-c1ccc(OC/C(=C/F)CN)cc1` [WX062], for which, on VAP-1/SSAO [1], the IC50 is 1.2 nM.

For `NC/C(=C\F)COc1ccc(-c2nc(C3CCCC3)n[nH]2)cc1` [WX064], at VAP-1/SSAO [1], the IC50 was 0.8 nM. Still for that read-out and setting: next, `NC/C(=C\F)COc1ccc(-c2nccc(N3CCOCC3)n2)cc1` [WX070]: 1.1 nM; `NC/C(=C\F)COc1ccc(-c2nc(C(N)=O)n[nH]2)cc1` [WX072]: 0.7 nM; `NC/C(=C\F)COc1ccc(-c2nc(N3CCOCC3)n[nH]2)cc1` [WX073]: 0.9 nM. Turning to `NC/C(=C\F)COc1ccc(-c2nc(N)no2)cc1` [WX074], the IC50 at VAP-1/SSAO [1] turned out to be 1 nM. As to `Cn1nc(-c2ccc(OC/C(=C/F)CN)cc2)nc1C1CC1` [WX075], the IC50 on VAP-1/SSAO [1] was determined as 0.7 nM. Still for that read-out and setting: the figure for `Cn1nc(C2CC2)nc1-c1ccc(OC/C(=C/F)CN)cc1` [WX076] is 2.1 nM; for `CC(C)(C)C(=O)Nc1noc(-c2ccc(OC/C(=C/F)CN)cc2)n1` [WX077] it is 1.6 nM. Same read-out and setting: the figure for `NC/C(=C\F)COc1ccc(-c2nnc(NC3CC3)o2)cc1` [WX079] is 0.2 nM; for `COc1ccc(Cn2nc(-c3ccc(OC/C(=C/F)CN)cc3)nc2NC2CC2)cc1` [WX080] it is 3.8 nM; for `NC/C(=C\F)COc1ccc(-c2nc(NC3CC3)n[nH]2)cc1` [WX081] it is 0.5 nM. As for `NC/C(=C\F)COc1ccc(-c2nc(NC3CC3)no2)cc1` [WX082], the IC50 at VAP-1/SSAO [1] is 0.3 nM. On the same count and under the same terms, the figure for `NC/C(=C\F)COc1ccc(-c2n[nH]c(C(CO)CCl)n2)cc1` (stereo not shown) [WX083] is 0.4 nM; for `NC/C(=C\F)COc1ccc(-c2nc(C3CCC3)n[nH]2)cc1` [WX085] it is 0.2 nM; for `NC/C(=C\F)COc1ccc(-c2nc(N3CCOCC3)cs2)cc1` [WX086] it is 9.9 nM. Take `NC/C(=C\F)COc1ccc(-c2nc(C3(F)CC3)n[nH]2)cc1` [WX087]: the figures for the IC50 on VAP-1/SSAO [1] and on VAP-1/SSAO [2] were 0.3 nM and 0.8 nM, respectively. On the same counts, the results for `NC/C(=C\F)COc1ccc(-c2nc(C(F)F)n[nH]2)cc1` [WX088] are 0.4 nM and 1.6 nM. Regarding `Cn1nc(C(C)(C)C)nc1-c1ccc(OC/C(=C/F)CN)cc1` [WX089], the IC50 on VAP-1/SSAO [1] came out at 1.9 nM. As for `Cn1nc(-c2ccc(OC/C(=C/F)CN)cc2)nc1C(C)(C)C` [WX090], at VAP-1/SSAO [1], the IC50 worked out at 1.1 nM. For `CC(C)n1nc(-c2ccc(OC/C(=C/F)CN)cc2)nc1C1CC1` [WX091], the IC50 at VAP-1/SSAO [1] is 1.2 nM; on VAP-1/SSAO [2] it was 1.3 nM. Consider `CCn1nc(-c2ccc(OC/C(=C/F)CN)cc2)nc1C1CC1` [WX092], for which, at VAP-1/SSAO [1], the IC50 was determined as 1.4 nM. As to `NC/C(=C\F)COc1ccc(-c2nc(C3CCOCC3)n[nH]2)cc1` [WX093], at VAP-1/SSAO [1], the IC50 worked out at 0.3 nM. Same read-out and setting: the figure for `NC/C(=C\F)COc1ccc(-c2nc(C3CC3)n[nH]2)c(F)c1` [WX094] is 0.3 nM. Regarding `Cn1nc(-c2ccc(OC/C(=C/F)CN)cc2)nc1C1CCOCC1` [WX095], the IC50 at VAP-1/SSAO [1] came out at 2.9 nM; on VAP-1/SSAO [2] it was 0.2 nM. `NC/C(=C\F)COc1ccc(-c2nc(C3CC3(F)F)n[nH]2)cc1` (stereo not shown) [WX096]: the IC50 on VAP-1/SSAO [1] came to 0.8 nM.

Take `NC/C(=C\F)COc1cc(F)c(-c2nc(N3CCOCC3)n[nH]2)c(F)c1` [WX099]: at VAP-1/SSAO [1], the IC50 was 3.4 nM. The same measure, in the same setting: next, `NC/C(=C\F)COc1ccc(-c2nc(N3CCOCC3)n[nH]2)c(F)c1` [WX100]: 1.1 nM; `Cc1nc(-c2ccc(OC/C(=C/F)CN)cc2)sc1N1CCOCC1` [WX102]: 0.4 nM. `NC/C(=C\F)COc1ccc(-c2nc(CC3CCCC3)n[nH]2)cc1` [WX103]: the IC50 on VAP-1/SSAO [1] amounted to 0.2 nM. On the same count and under the same terms, next, `Cn1nc(-c2ccc(OC/C(=C/F)CN)cc2)nc1CC(F)(F)F` [WX105]: 0.5 nM. Still for that read-out and setting: next, `CC1(C)CN=C(c2ccc(OC/C(=C/F)CN)cc2)N1` [WX106]: 1.1 nM; `Cc1nc(-c2ccc(OC/C(=C/F)CN)cc2)sc1C` [WX111]: 0.4 nM; `Cn1nc(-c2ccc(OC/C(=C/F)CN)cc2)nc1N1CCOCC1` [WX122]: 1 nM. The same measure, in the same setting: next, `CC(C)n1nc(-c2ccc(OC/C(=C/F)CN)cc2)nc1N1CCOCC1` [WX123]: 2.2 nM. For the compound `CC(C)n1nc(-c2ccc(OC/C(=C/F)CN)cc2)nc1C(F)F` [WX124], on VAP-1/SSAO [1], the IC50 turned out to be 1.4 nM. The same measure, in the same setting: next, `CCn1nc(-c2ccc(OC/C(=C/F)CN)cc2)nc1N1CCOCC1` [WX125]: 1 nM; `Cn1nc(-c2ccc(OC/C(=C/F)CN)cc2)nc1C1(F)CC1` [WX127]: 0.8 nM. On to `CCn1nc(-c2ccc(OC/C(=C/F)CN)cc2)nc1C(F)F` [WX128], for which the IC50 at VAP-1/SSAO [1] worked out at 1 nM. On the same count and under the same terms, next, `CCn1nc(-c2ccc(OC/C(=C/F)CN)cc2)nc1C1(F)CC1` [WX129]: 1 nM; `CC(C)n1nc(-c2ccc(OCC(=CF)CN)cc2)nc1C1(F)CC1` [WX130]: 1.4 nM.
